Numbered stars: 1 amine (or outer) side, 2 acyl side, 3 side chain; on linkers, the order of the positions; unused ones are H or OH. Bridge positions count the residues as written; N and C are the ends. Square brackets hold non-standard residues; d marks the D form. Side chains are listed from the residue outwards. Peptide text beside a SMILES is read from it. * marks the point of attachment. γGlu = O=C(O)[C@H](CCC(=O)[*:2])N[*:1]; Lauroyl = CCCCCCCCCCCC(=O)*; Dab = NCC[C@H](N)C(=O)O
Columns and labels:
human CXCR4 = target: T1, human CXCR4 (Homo sapiens, UniProt P61073); experiment: Ca2+-assay: CXCR4-antagonizing activity (SDF-1 induced calcium mobilization); format: cell-based; conditions: mouse pre-B cell line 300-19 transfected with human CXCR4; SDF-1 induced Ca2+ mobilization; read-out: IC50% [nM] ± SD, CXCR4 receptor
T1 construct: expressed in transfected cells; host or cells: mouse pre-B cell line 300-19
T1 sequence (P61073 whole entry): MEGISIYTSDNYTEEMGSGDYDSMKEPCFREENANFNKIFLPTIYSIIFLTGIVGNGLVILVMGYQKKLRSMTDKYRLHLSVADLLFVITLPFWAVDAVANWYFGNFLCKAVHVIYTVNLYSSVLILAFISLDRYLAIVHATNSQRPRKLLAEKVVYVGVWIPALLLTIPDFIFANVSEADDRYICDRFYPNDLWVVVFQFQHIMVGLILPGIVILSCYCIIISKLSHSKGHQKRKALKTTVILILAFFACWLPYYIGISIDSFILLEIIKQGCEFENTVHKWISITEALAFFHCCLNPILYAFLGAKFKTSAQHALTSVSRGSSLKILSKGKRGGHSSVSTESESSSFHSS
Outline: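 Mouse pre-B 300-19 cells stably expressing human CXCR4, loaded with Calcium 4 dye in HBSS/20 mM HEPES pH 7.4/0.1% BSA for 1 h at RT. Peptides added before SDF-1; fluorescence (ex 485/em 525 nm) followed for 90 s. IC50 from four-parameter logistic fit of % maximal SDF-1 response.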

in vivo = experiment: in vivo; design: species or system male CD-1 mice; conditions: for bioavailability / AUC(0-inf) / Cmax / Tmax / half-life / level at 0.083 h / level at 0.25 h / level at 0.5 h / level at 1 h / level at 2 h / level at 4 h / level at 8 h / level at 12 h / level at 24 h: male, CD-1, mouse; for AUC0-∞ dcor. / Cmax dcor.: mouse
Experimental: 2.7. Pharmacokinetic Study (PK)
Pharmacokinetic study after intravenous (i.v.) and subcutaneous (s.c.) administration was performed for the compounds of Ex. 17, Ex. 20, Ex. 25, Ex. 26, Ex. 28, and Ex. 29. […] The compounds of Ex. 17, Ex. 25, Ex. 26, Ex. 28, and Ex. 29 were administered i.v. and s.c. as a cassette whereas for the compound of Ex. 20a single i.v. and s.c. administration was accomplished.
30 grams (±20%) male CD-1 mice obtained from Janvier, France, were used in the study testing the cassette compounds. The vehicle, phosphate buffered saline containing 5% DMSO, was added to give a final concentration of 0.5 mg/mL of the compounds (i.v. route and s.c. route). The volume was 2 mL/kg i.v. and 10 mL/kg s.c. and the cassette compounds were injected to give a final intravenous dose of 1 mg/kg and an subcutaneous dose of 5 mg/kg. Approximately 500 μL of blood were removed from the opened heart at predetermined time intervals (5, 15, 30 min and 1, 2, 4, 8 and 12 hours for the i.v. study and 5, 15, 30 min and 1, 2, 4, 8, 12 and 24 hours for the s.c. study) and added to heparinized tubes. Plasma was removed from pelleted cells upon centrifugation and frozen at −80° C. prior to HPLC-MS analysis. For the compound of Ex. 20 30 grams (±20%) male CD-1 mice obtained from Charles River Laboratories Deutschland GmbH were used. The vehicle, phosphate buffered saline, was added to give a final concentration of 0.2 mg/mL of the compound (i.v. route) and 1 mg/mL (s.c. route). The volume was 5 mL/kg i.v. and s.c. and the compound was injected to give a final intravenous dose of 1 mg/kg and an subcutaneous dose of 5 mg/kg. Approximately 300-400 μL of blood was removed under light isoflurane anesthesia by cardiac puncture at predetermined time intervals (5, 15, 30 min and 1, 2, 3, 4, 6, 12 hours for the i.v. study and 15, min and 1, 2, 4, 6, 8, 12 and 24 hours for the s.c. study) and added to heparinized tubes. Plasma was removed from pelleted cells upon centrifugation and frozen at −80° C. prior to HPLC-MS analysis.
Preparation of the Plasma Calibration Samples
“Blank” mouse plasma from untreated animals was used. Aliquots of plasma of 0.2 mL each were spiked with 50 ng of propranolol (Internal Standard, IS), (sample preparation by solid phase extraction on OASIS® HLB cartridges [Waters]) and with known amounts of Ex. 20 in order to obtain 9 plasma calibration samples in the range 10-5000 nM. The OASIS® HLB cartridges were conditioned with 1 mL of methanol and then with 1 mL of 1% NH3 in water. Samples were then diluted with 700 μL of 1% NH3 in water and loaded. The plate was washed with 1 mL of methanol/1% NH3 in water 5/95 (v/v). Elution was performed using 1 mL of 0.1% TFA in methanol.
The plate containing eluates was introduced into the concentrator system and taken to dryness. The residues were dissolved in 100 μL of formic acid 0.1%/acetonitrile, 95/5 (v/v) and analysed in the HPLC/MS on a reverse phase analytical column (Jupiter C18, 50×2.0 mm, 5 μm, Phenomenex), using gradient elution (mobile phases A: 0.1% formic acid in water, B: acetonitrile; from 5% B to 100% B in 2 min.).
Preparation of Plasma Samples
Samples coming from animal treatments were pooled in order to obtain an appropriate volume for the extraction. If the total volume obtained was less than 0.2 mL the appropriate amount of “blank” mouse plasma was added in order to keep the matrix identical to the calibration curve. Samples were than spiked with IS and processed as described for the calibration curve.
Pharmacokinetic Evaluation
In order to perform PK analysis pooled plasma data (n=3 mice) was used. PK parameters were calculated by WinNonLin™ software version 5.2.1 (Pharsight—A Certara™ Company, Mountain View, Calif. 94041 USA) using non-compartmental analysis with a linear up/log down trapezoidal calculation method. For the terminal elimination phase at least 3 time points and a correlation coefficient greater than 0.85 was used. […]

## CCCCCCCCCCCC(=O)N[C@@H](CCC(=O)NCCCC[C@@H]1NC(=O)[C@H](Cc2ccc(O)cc2)NC(=O)[C@@H]2CSSC[C@H](NC(=O)[C@H](Cc3ccc(O)cc3)NC(=O)[C@H](Cc3c[nH]cn3)NC(=O)[C@H](Cc3ccc(O)cc3)NC(=O)[C@@H]3CCCN3C(=O)[C@H]3CCCN3C(=O)[C@H](CCCCN)NC1=O)C(=O)N[C@@H](CO)C(=O)N[C@@H](C)C(=O)N1CCC[C@@H]1C(=O)N[C@@H](CCN)C(=O)N[C@@H](CCCNC(=N)N)C(=O)N[C@@H](Cc1ccc(O)cc1)C(=O)N2)C(=O)O [Ex. 25] (cyclo(YHYCSA[dP][Dab]RYCYK([γGlu-Lauroyl])K[dP]P); disulfide 4-11)
Human CXCR4
  IC50: 3.5 ± 0.1 nM
In vivo
  bioavailability: 142%
In vivo; iv, 1 mg/kg
  AUC(0-inf): 3480 ng·h/mL
  Cmax: 2970 ng/mL
  Tmax: 0.1 h
  half-life: 2.5 h
  level at 0.083 h: 2970 ng/mL
  level at 0.25 h: 2190 ng/mL
  level at 0.5 h: 1990 ng/mL
  level at 1 h: 1600 ng/mL
  level at 2 h: 160 ng/mL
  level at 4 h: 180 ng/mL
  level at 8 h: 18 ng/mL
  level at 12 h: 16 ng/mL
  AUC0-∞ dcor.: 3480.0 kg·ng·h/mg/mL
  Cmax dcor.: 2970.0 kg·ng/mg/mL
In vivo; sc, 5 mg/kg
  AUC(0-inf): 24700 ng·h/mL
  Cmax: 2190 ng/mL
  Tmax: 2 h
  half-life: 4.7 h
  level at 0.25 h: 44 ng/mL
  level at 0.5 h: 205 ng/mL
  level at 1 h: 517 ng/mL
  level at 2 h: 2190 ng/mL
  level at 4 h: 1640 ng/mL
  level at 8 h: 1890 ng/mL
  level at 12 h: 1210 ng/mL
  level at 24 h: 108 ng/mL
  AUC0-∞ dcor.: 4944.7 kg·ng·h/mg/mL
  Cmax dcor.: 437.4 kg·ng/mg/mL

## CCCCCCCCCCCC(=O)N[C@@H](CCC(=O)NCCCC[C@@H]1NC(=O)[C@H](Cc2ccc(O)cc2)NC(=O)[C@@H]2CSSC[C@H](NC(=O)[C@H](C)NC(=O)[C@H](Cc3c[nH]cn3)NC(=O)[C@H](Cc3ccc(O)cc3)NC(=O)[C@@H]3CCCN3C(=O)[C@H]3CCCN3C(=O)[C@H](CCCCN)NC1=O)C(=O)N[C@@H](CCCNC(=N)N)C(=O)N[C@@H](C)C(=O)N1CCC[C@@H]1C(=O)N[C@@H](CCN)C(=O)N[C@@H](CCCNC(=N)N)C(=O)N[C@@H](Cc1ccc(O)cc1)C(=O)N2)C(=O)O [Ex. 26] (cyclo(YHACRA[dP][Dab]RYCYK([γGlu-Lauroyl])K[dP]P); disulfide 4-11)
Human CXCR4
  IC50: 2.4 ± 0.5 nM
In vivo
  bioavailability: 142%
In vivo; iv, 1 mg/kg
  AUC(0-inf): 3400 ng·h/mL
  Cmax: 3470 ng/mL
  Tmax: 0.1 h
  half-life: 1.3 h
  level at 0.083 h: 3470 ng/mL
  level at 0.25 h: 2530 ng/mL
  level at 0.5 h: 1980 ng/mL
  level at 1 h: 1540 ng/mL
  level at 2 h: 219 ng/mL
  level at 4 h: 98 ng/mL
  level at 8 h: 10 ng/mL
  AUC0-∞ dcor.: 3395.6 kg·ng·h/mg/mL
  Cmax dcor.: 3467.0 kg·ng/mg/mL
In vivo; sc, 5 mg/kg
  AUC(0-inf): 24000 ng·h/mL
  Cmax: 3990 ng/mL
  Tmax: 2 h
  half-life: 2.9 h
  level at 0.25 h: 221 ng/mL
  level at 0.5 h: 779 ng/mL
  level at 1 h: 1750 ng/mL
  level at 2 h: 3990 ng/mL
  level at 4 h: 2530 ng/mL
  level at 8 h: 1600 ng/mL
  level at 12 h: 524 ng/mL
  level at 24 h: 23 ng/mL
  AUC0-∞ dcor.: 4806.6 kg·ng·h/mg/mL
  Cmax dcor.: 797.4 kg·ng/mg/mL

From patent US8716242B2, “β-hairpin peptidomimetics” (priority 2009, dated 2014)
